Experimental data: patent US11168095B2, “ASK1 inhibiting agents” (BIOGEN MA INC., priority 2017, dated 2021)

Assays:
ASK1/MAP3K5 = ASK1/MAP3K5 (Homo sapiens (Human), UniProt Q99683); assay: ASK1/MAP3K5 assay by Reaction Biology Corp.; format: biochemical; conditions: 20 μM myelin basic protein (MBP), 10 μM ATP
Procedure: ASK1/MAP3K5 was used as the protein kinase and 20 μM of myelin basic protein (MBP) and 10 μM ATP were used as the substrate.

[1] = target: ASK1 T838 auto phosphorylation in HEK-293T cells (Homo sapiens (Human), UniProt Q99683); assay: ASK1 (AUTO PHOS T838) assay, MSD format; format: cell-based; conditions: HEK 293T cells transfected with ASK1-V5 full length plasmid, compounds 1 hr at 37° C.; read-out: IC50
Procedure: The plates were incubated at 37° C. overnight. Media on plates was changed to OPTI-MEM, serum free media and cells were transfected with 9 μg of ASK1-V5 tagged full length plasmid using Lipofectamine 2000 (Invitrogen) and the plates were incubated at 37° C. overnight. Cells were trypsinized, counted on Nexcellometer and plated into 96 well tissue culture plates with 100,000 cells/well and 200 μL media. Cells were incubated for 4 hr at 37° C. then ASK1 compounds were added using a HP 300e. Compounds were tested at 20 μM with 3 fold, 10 point dilution points then incubated for 1 hr at 37° C. A lysis buffer (Cell Signaling) was prepared with protease and phosphatase inhibitor and maintained at 4° C. until use. Media from cells was discarded and 120 μL of cold lysis buffer was added to the cells, the plate was shaken 4° C. for 1 hr. Lysate was mixed using Apricot liquid handler; aspirating up and down 16 times at high speed using 50 μL volume. […] Plates were then incubated on a plate shaker overnight at 4° C. Plates were washed 3× with MSD wash buffer and 50 μL of rabbit anti-pASK1 T838 antibody was added to the wells and incubated for 2 hr at room temperature on a plate shaker. Plates were then washed and 50 μL of goat anti-rabbit sulfa-tag (1:500 dilution) was added to wells, and incubated for 1 hr at room temperature on a plate shaker. […] Plates were immediately read on a MSD Instrument Reader where chemoluminecense signal was measured. Data was analyzed using Graph Pad or Genedata, the data was normalized and plotted, % activity versus log of compound concentration. The IC50 values were obtained from a 4 parameter fit.

ASK1/MAP3K5, sequence (Q99683 whole entry): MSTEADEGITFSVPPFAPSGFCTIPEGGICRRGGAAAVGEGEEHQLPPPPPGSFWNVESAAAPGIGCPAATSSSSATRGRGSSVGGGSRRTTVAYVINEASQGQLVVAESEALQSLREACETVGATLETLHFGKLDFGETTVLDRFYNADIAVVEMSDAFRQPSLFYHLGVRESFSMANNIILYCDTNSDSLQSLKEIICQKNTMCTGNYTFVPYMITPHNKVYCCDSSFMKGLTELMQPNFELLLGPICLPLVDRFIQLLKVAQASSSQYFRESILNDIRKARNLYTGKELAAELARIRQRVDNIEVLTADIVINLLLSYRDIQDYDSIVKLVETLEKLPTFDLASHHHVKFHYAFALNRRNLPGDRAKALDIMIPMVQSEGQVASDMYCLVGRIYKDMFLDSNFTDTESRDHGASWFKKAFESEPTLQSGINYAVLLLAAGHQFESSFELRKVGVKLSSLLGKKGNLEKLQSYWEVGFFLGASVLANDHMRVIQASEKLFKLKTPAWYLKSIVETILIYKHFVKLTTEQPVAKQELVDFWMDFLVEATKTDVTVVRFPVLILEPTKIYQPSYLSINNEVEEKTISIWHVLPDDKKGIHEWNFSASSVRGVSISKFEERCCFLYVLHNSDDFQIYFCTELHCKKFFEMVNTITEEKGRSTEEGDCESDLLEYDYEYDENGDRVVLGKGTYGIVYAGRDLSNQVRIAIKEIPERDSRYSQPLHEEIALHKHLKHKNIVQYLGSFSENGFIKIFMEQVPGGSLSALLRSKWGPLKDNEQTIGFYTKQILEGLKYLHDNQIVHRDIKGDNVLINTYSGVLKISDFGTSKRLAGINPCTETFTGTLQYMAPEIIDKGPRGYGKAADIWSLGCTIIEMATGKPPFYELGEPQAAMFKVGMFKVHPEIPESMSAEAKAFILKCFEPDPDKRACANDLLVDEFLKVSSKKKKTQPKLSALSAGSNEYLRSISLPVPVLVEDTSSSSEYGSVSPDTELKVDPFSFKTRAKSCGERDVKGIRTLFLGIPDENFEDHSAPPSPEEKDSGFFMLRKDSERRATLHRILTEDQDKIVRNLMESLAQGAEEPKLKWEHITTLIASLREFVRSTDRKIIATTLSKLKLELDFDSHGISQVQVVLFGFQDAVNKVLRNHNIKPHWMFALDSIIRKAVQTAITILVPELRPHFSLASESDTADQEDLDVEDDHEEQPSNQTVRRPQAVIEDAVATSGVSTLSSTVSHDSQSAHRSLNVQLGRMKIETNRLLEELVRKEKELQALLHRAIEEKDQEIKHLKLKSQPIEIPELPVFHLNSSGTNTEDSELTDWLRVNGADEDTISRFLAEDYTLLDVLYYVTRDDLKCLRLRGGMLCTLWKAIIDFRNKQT
ASK1 T838 auto phosphorylation in HEK-293T cells, sequence (Q99683 whole entry): as above

IC50 (ASK1/MAP3K5) [nM]	IC50 [1] [nM]	SMILES
< 100	< 1000	O=C1Nc2cccc(n2)-c2nncn2CCCCOc2ccc(-c3cnn(C4CCC4)c3)cc21 [Example 35, 5^5-(1-Cyclobutyl-1H-pyrazol-4-yl)-1^4H-6-oxa-3-aza-2(2,6)-pyridina-1(3,4)-triazola-5(1,2)-benzenacyclodecaphan-4-one]
< 100	< 1000	CC(C)n1cc(-c2ccc3c(c2)C(=O)Nc2cccc(n2)-c2nncn2CCCCO3)cn1 [Example 36, 5^5-(1-Isopropyl-1H-pyrazol-4-yl)-1^4H-6-oxa-3-aza-2(2,6)-pyridina-1(3,4)-triazola-5(1,2)-benzenacyclodecaphan-4-one]
< 100	< 1000	Cc1c(-c2ccc3c(c2)C(=O)Nc2cccc(n2)-c2nncn2CCCCO3)cnn1C [Example 37, 5^5-(1,5-Dimethyl-1H-pyrazol-4-yl)-1^4H-6-oxa-3-aza-2(2,6)-pyridina-1(3,4)-triazola-5(1,2)-benzenacyclodecaphan-4-one]
< 100	< 1000	O=C1Nc2cccc(n2)-c2nncn2CCCCOc2ccc(-c3cnn(C4COC4)c3)cc21 [Example 38, 5^5-(1-(Oxetan-3-yl)-1H-pyrazol-4-yl)-1^4H-6-oxa-3-aza-2(2,6)-pyridina-1(3,4)-triazola-5(1,2)-benzenacyclodecaphan-4-one]
< 100	< 1000	CN1CCn2ncc(-c3ccc4c(c3)C(=O)Nc3cccc(n3)-c3nncn3CCCCO4)c2C1 [Example 40, 5^5-(5-Methyl-4,5,6,7-tetrahydropyrazolo[1,5-a]pyrazin-3-yl)-1^4H-6-oxa-3-aza-2(2,6)-pyridina-1(3,4)-triazola-5(1,2)-benzenacyclodecaphan-4-one]
< 100	< 1000	O=C1Nc2cccc(n2)-c2nncn2CCCCOc2ccc(-n3ccnc3)cc21 [Example 41, 5^5-(1H-Imidazol-1-yl)-1^4H-6-oxa-3-aza-2(2,6)-pyridina-1(3,4)-triazola-5(1,2)-benzenacyclodecaphan-4-one]
< 100	< 1000	Cc1nccn1-c1ccc2c(c1)C(=O)Nc1cccc(n1)-c1nncn1CCCCO2 [Example 43, 5^5-(2-Methyl-1H-imidazol-1-yl)-1^4H-6-oxa-3-aza-2(2,6)-pyridina-1(3,4)-triazola-5(1,2)-benzenacyclodecaphan-4-one]
< 100	< 1000	Cc1ccn(-c2ccc3c(c2)C(=O)Nc2cccc(n2)-c2nncn2CCCCO3)n1 [Example 45, 5^5-(3-Methyl-1H-pyrazol-1-yl)-1^4H-6-oxa-3-aza-2(2,6)-pyridina-1(3,4)-triazola-5(1,2)-benzenacyclodecaphan-4-one]
100 to 1000	1000 to 10000	Cc1ccnn1-c1ccc2c(c1)C(=O)Nc1cccc(n1)-c1nncn1CCCCO2 [Example 45a, 5^5-(5-Methyl-1H-pyrazol-1-yl)-1^4H-6-oxa-3-aza-2(2,6)-pyridina-1(3,4)-triazola-5(1,2)-benzenacyclodecaphan-4-one]
< 100	< 1000	Cc1cc(C)n(-c2ccc3c(c2)C(=O)Nc2cccc(n2)-c2nncn2CCCCO3)n1 [Example 46, 5^5-(3,5-Dimethyl-1H-pyrazol-1-yl)-1^4H-6-oxa-3-aza-2(2,6)-pyridina-1(3,4)-triazola-5(1,2)-benzenacyclodecaphan-4-one]
< 100	< 1000	NCc1ccc2c(c1)C(=O)Nc1cccc(n1)-c1nncn1CCCCO2 [Example 47, 5^5-(Aminomethyl)-1^4H-6-oxa-3-aza-2(2,6)-pyridina-1(3,4)-triazola-5(1,2)-benzenacyclodecaphan-4-one]
< 100	< 1000	CN(C)Cc1ccc2c(c1)C(=O)Nc1cccc(n1)-c1nncn1CCCCO2 [Example 48, 5^5-((Dimethylamino)methyl)-1^4H-6-oxa-3-aza-2(2,6)-pyridina-1(3,4)-triazola-5(1,2)-benzenacyclodecaphan-4-one]
< 100	< 1000	CC(C)(O)c1ccc2c(c1)C(=O)Nc1cccc(n1)-c1nncn1CCCCO2 [Example 49, 5^5-(2-Hydroxypropan-2-yl)-1^4H-6-oxa-3-aza-2(2,6)-pyridina-1(3,4)-triazola-5(1,2)-benzenacyclodecaphan-4-one]
< 100	< 1000	COC(C)(C)c1ccc2c(c1)C(=O)Nc1cccc(n1)-c1nncn1CCCCO2 [Example 50, 5^5-(2-Methoxypropan-2-yl)-1^4H-6-oxa-3-aza-2(2,6)-pyridina-1(3,4)-triazola-5(1,2)-benzenacyclodecaphan-4-one]
	< 1000	CC(C)(C#N)c1ccc2c(c1)C(=O)Nc1cccc(n1)-c1nncn1CCCCO2 [Example 51, 2-Methyl-2-(4-oxo-1^4H-6-oxa-3-aza-2(2,6)-pyridina-1(3,4)-triazola-5(1,2)-benzenacyclodecaphane-5^5-yl)propanenitrile]
< 100	< 1000	O=C1Nc2cccc(n2)-c2nncn2CCCCOc2cc(F)c(-c3ccncc3)cc21 [Example 52, 5^4-Fluoro-5^5-(pyridin-4-yl)-1^4H-6-oxa-3-aza-2(2,6)-pyridina-1(3,4)-triazola-5(1,2)-benzenacyclodecaphan-4-one]
	< 1000	CN(C)CCn1cc(-c2cc3c(cc2C(F)(F)F)OCCCCn2cnnc2-c2cccc(n2)NC3=O)cn1 [Example 77, 5^5-(1-(2-(Dimethylamino)ethyl)-1H-pyrazol-4-yl)-5^4-(trifluoromethyl)-1^4H-6-oxa-3-aza-2(2,6)-pyridina-1(3,4)-triazola-5(1,2)-benzenacyclodecaphan-4-one]
	< 1000	C[C@H]1CCCOc2cc(F)c(N3CCN(C)CC3)cc2C(=O)Nc2cccc(n2)-c2nncn21 [Example 105, (S)-5^4-Fluoro-10-methyl-5^5-(4-methylpiperazin-1-yl)-1^4H-6-oxa-3-aza-2(2,6)-pyridina-1(3,4)-triazola-5(1,2)-benzenacyclodecaphan-4-one]
	< 1000	C[C@H]1CCCOc2cc(F)c(-c3ccncc3F)cc2C(=O)Nc2cccc(n2)-c2nncn21 [Example 109, (S)-5^4-Fluoro-5^5-(3-fluoropyridin-4-yl)-10-methyl-1^4H-6-oxa-3-aza-2(2,6)-pyridina-1(3,4)-triazola-5(1,2)-benzenacyclodecaphan-4-one]
	< 1000	C[C@H]1CCOc2cc(F)c(N3CCOCC3)cc2C(=O)Nc2cccc(n2)-c2nncn2C1 [Example 126, (S)-5^4-Fluoro-9-methyl-5^5-morpholino-1^4H-6-oxa-3-aza-2(2,6)-pyridina-1(3,4)-triazola-5(1,2)-benzenacyclodecaphan-4-one]
	< 1000	C[C@H]1CCOc2cc(F)c(-c3cccnc3F)cc2C(=O)Nc2cccc(n2)-c2nncn2C1 [Example 128, (S)-5^4-Fluoro-5^5-(2-fluoropyridin-3-yl)-9-methyl-1^4H-6-oxa-3-aza-2(2,6)-pyridina-1(3,4)-triazola-5(1,2)-benzenacyclodecaphan-4-one]
	< 1000	C[C@H]1CCOc2cc(F)c(-c3ccc(F)nc3)cc2C(=O)Nc2cccc(n2)-c2nncn2C1 [Example 129, (S)-5^4-Fluoro-5^5-(6-fluoropyridin-3-yl)-9-methyl-1^4H-6-oxa-3-aza-2(2,6)-pyridina-1(3,4)-triazola-5(1,2)-benzenacyclodecaphan-4-one]
	< 1000	C[C@H]1CCOc2cc(F)c(-c3cnn4c3CN(C)CC4)cc2C(=O)Nc2cccc(n2)-c2nncn2C1 [Example 131, (S)-5^4-Fluoro-9-methyl-5^5-(5-methyl-4,5,6,7-tetrahydropyrazolo[1,5-a]pyrazin-3-yl)-1^4H-6-oxa-3-aza-2(2,6)-pyridina-1(3,4)-triazola-5(1,2)-benzenacyclodecaphan-4-one]
	< 1000	C[C@@H]1CCOc2cc(F)c(-c3cnn4c3CN(C)CC4)cc2C(=O)Nc2cccc(n2)-c2nncn2C1 [Example 132, (R)-5^4-Fluoro-9-methyl-5^5-(5-methyl-4,5,6,7-tetrahydropyrazolo[1,5-a]pyrazin-3-yl)-1^4H-6-oxa-3-aza-2(2,6)-pyridina-1(3,4)-triazola-5(1,2)-benzenacyclodecaphan-4-one]
	< 1000	Cc1cn(-c2cc3c(cc2F)OCC[C@H](C)Cn2cnnc2-c2cccc(n2)NC3=O)cn1 [Example 133, (S)-5^4-Fluoro-9-methyl-5^5-(4-methyl-1H-imidazol-1-yl)-1^4H-6-oxa-3-aza-2(2,6)-pyridina-1(3,4)-triazola-5(1,2)-benzenacyclodecaphan-4-one]
	< 1000	CN1CCn2ncc(-c3cc4c(cc3F)OCC/C=C\Cn3cnnc3-c3cccc(n3)NC4=O)c2C1 [Example 182, (Z)-5^4-Fluoro-5^5-(5-methyl-4,5,6,7-tetrahydropyrazolo[1,5-a]pyrazin-3-yl)-1^4H-6-oxa-3-aza-2(2,6)-pyridina-1(3,4)-triazola-5(1,2)-benzenacycloundecaphan-9-en-4-one]
